Test: xn = mol fraction of the nth substance listed
Conditions: Liquid, Vibrating tube method

CC(C)CCl [1-chloro-2-methylpropane] + CCCCCCC
mass density [kg/m3]
Conditions | 283.15 K | 293.15 K
100 kPa, x2 = 0.0531 | 874.07 | 862.97
100 kPa, x2 = 0.1023 | 861 | 850.09
100 kPa, x2 = 0.2009 | 836.3 | 825.74
100 kPa, x2 = 0.3009 | 813.26 | 803.04
100 kPa, x2 = 0.3981 | 792.55 | 782.63
100 kPa, x2 = 0.4986 | 772.68 | 763.05
100 kPa, x2 = 0.5998 | 754.11 | 744.76
100 kPa, x2 = 0.7038 | 736.38 | 727.31
100 kPa, x2 = 0.7993 | 721.25 | 712.4
100 kPa, x2 = 0.8995 | 706.4 | 697.78
100 kPa, x2 = 0.9507 | 699.19 | 690.68
2000 kPa, x2 = 0.0531 | 876.04 | 865
2000 kPa, x2 = 0.1023 | 862.99 | 852.14
2000 kPa, x2 = 0.2009 | 838.37 | 827.88
2000 kPa, x2 = 0.3009 | 815.32 | 805.15
2000 kPa, x2 = 0.3981 | 794.55 | 784.68
2000 kPa, x2 = 0.4986 | 774.64 | 765.08
2000 kPa, x2 = 0.5998 | 756.04 | 746.74
2000 kPa, x2 = 0.7038 | 738.29 | 729.29
2000 kPa, x2 = 0.7993 | 723.14 | 714.35
2000 kPa, x2 = 0.8995 | 708.31 | 699.74
2000 kPa, x2 = 0.9507 | 701.15 | 692.69
5000 kPa, x2 = 0.0531 | 879.03 | 868.28
5000 kPa, x2 = 0.1023 | 865.96 | 855.4
5000 kPa, x2 = 0.2009 | 841.29 | 831.08
5000 kPa, x2 = 0.3009 | 818.18 | 808.31
5000 kPa, x2 = 0.3981 | 797.37 | 787.79
5000 kPa, x2 = 0.4986 | 777.41 | 768.11
5000 kPa, x2 = 0.5998 | 758.77 | 749.74
5000 kPa, x2 = 0.7038 | 741 | 732.21
5000 kPa, x2 = 0.7993 | 725.78 | 717.25
5000 kPa, x2 = 0.8995 | 710.91 | 702.62
5000 kPa, x2 = 0.9507 | 703.73 | 695.55
7000 kPa, x2 = 0.0531 | 880.97 | 870.39
7000 kPa, x2 = 0.1023 | 867.88 | 857.47
7000 kPa, x2 = 0.2009 | 843.19 | 833.12
7000 kPa, x2 = 0.3009 | 820.06 | 810.3
7000 kPa, x2 = 0.3981 | 799.24 | 789.75
7000 kPa, x2 = 0.4986 | 779.24 | 770.05
7000 kPa, x2 = 0.5998 | 760.58 | 751.63
7000 kPa, x2 = 0.7038 | 742.77 | 734.07
7000 kPa, x2 = 0.7993 | 727.56 | 719.06
7000 kPa, x2 = 0.8995 | 712.67 | 704.42
7000 kPa, x2 = 0.9507 | 705.48 | 697.32
10000 kPa, x2 = 0.0531 | 883.84 | 873.43
10000 kPa, x2 = 0.1023 | 870.72 | 860.49
10000 kPa, x2 = 0.2009 | 845.97 | 836.1
10000 kPa, x2 = 0.3009 | 822.78 | 813.24
10000 kPa, x2 = 0.3981 | 801.92 | 792.65
10000 kPa, x2 = 0.4986 | 781.87 | 772.89
10000 kPa, x2 = 0.5998 | 763.16 | 754.46
10000 kPa, x2 = 0.7038 | 745.31 | 736.87
10000 kPa, x2 = 0.7993 | 730.05 | 721.81
10000 kPa, x2 = 0.8995 | 715.13 | 707.11
10000 kPa, x2 = 0.9507 | 707.91 | 700
20000 kPa, x2 = 0.0531 | 892.78 | 882.96
20000 kPa, x2 = 0.1023 | 879.6 | 869.95
20000 kPa, x2 = 0.2009 | 854.73 | 845.39
20000 kPa, x2 = 0.3009 | 831.42 | 822.38
20000 kPa, x2 = 0.3981 | 810.43 | 801.64
20000 kPa, x2 = 0.4986 | 790.3 | –
20000 kPa, x2 = 0.5998 | 771.47 | –
20000 kPa, x2 = 0.7038 | 753.52 | –
20000 kPa, x2 = 0.7993 | 738.16 | –
20000 kPa, x2 = 0.8995 | 723.13 | –
20000 kPa, x2 = 0.9507 | 715.85 | –
30000 kPa, x2 = 0.0531 | 900.97 | –
30000 kPa, x2 = 0.1023 | 887.68 | –
30000 kPa, x2 = 0.2009 | 862.6 | –
30000 kPa, x2 = 0.3009 | 839.17 | –
30000 kPa, x2 = 0.3981 | 818.12 | –
30000 kPa, x2 = 0.4986 | 797.85 | –
30000 kPa, x2 = 0.5998 | 778.93 | –
30000 kPa, x2 = 0.7038 | 760.8 | –
30000 kPa, x2 = 0.7993 | 745.44 | –
30000 kPa, x2 = 0.8995 | 730.29 | –
30000 kPa, x2 = 0.9507 | 722.95 | –
40000 kPa, x2 = 0.0531 | 908.57 | –
40000 kPa, x2 = 0.1023 | 895.22 | –
40000 kPa, x2 = 0.2009 | 870.06 | –
40000 kPa, x2 = 0.3009 | 846.56 | –
40000 kPa, x2 = 0.3981 | 825.29 | –
40000 kPa, x2 = 0.4986 | 804.92 | –
40000 kPa, x2 = 0.5998 | 785.84 | –
40000 kPa, x2 = 0.7038 | 767.67 | –
40000 kPa, x2 = 0.7993 | 752.19 | –
40000 kPa, x2 = 0.8995 | 736.93 | –
40000 kPa, x2 = 0.9507 | 729.53 | –
50000 kPa, x2 = 0.0531 | 915.66 | –
50000 kPa, x2 = 0.1023 | 902.32 | –
50000 kPa, x2 = 0.2009 | 876.98 | –
50000 kPa, x2 = 0.3009 | 853.42 | –
50000 kPa, x2 = 0.3981 | 832.08 | –
50000 kPa, x2 = 0.4986 | 811.56 | –
50000 kPa, x2 = 0.5998 | 792.36 | –
50000 kPa, x2 = 0.7038 | 774.06 | –
50000 kPa, x2 = 0.7993 | 758.41 | –
50000 kPa, x2 = 0.8995 | 743.05 | –
50000 kPa, x2 = 0.9507 | 735.59 | –
60000 kPa, x2 = 0.0531 | 922.27 | –
60000 kPa, x2 = 0.1023 | 908.86 | –
60000 kPa, x2 = 0.2009 | 883.47 | –
60000 kPa, x2 = 0.3009 | 859.78 | –
60000 kPa, x2 = 0.3981 | 838.33 | –
60000 kPa, x2 = 0.4986 | 817.73 | –
60000 kPa, x2 = 0.5998 | 798.43 | –
60000 kPa, x2 = 0.7038 | 780.03 | –
60000 kPa, x2 = 0.7993 | 764.33 | –
60000 kPa, x2 = 0.8995 | 748.87 | –
60000 kPa, x2 = 0.9507 | 741.35 | –
65000 kPa, x2 = 0.0531 | 925.46 | –
65000 kPa, x2 = 0.1023 | 912 | –
65000 kPa, x2 = 0.2009 | 886.55 | –
65000 kPa, x2 = 0.3009 | 862.78 | –
65000 kPa, x2 = 0.3981 | 841.29 | –
65000 kPa, x2 = 0.4986 | 820.65 | –
65000 kPa, x2 = 0.5998 | 801.22 | –
65000 kPa, x2 = 0.7038 | 782.82 | –
65000 kPa, x2 = 0.7993 | 767.1 | –
65000 kPa, x2 = 0.8995 | 751.59 | –
65000 kPa, x2 = 0.9507 | 744.04 | –

Source: the NIST ThermoML archive (doi:10.1016/j.tca.2015.06.017)
